Laboratory results reported in patent US20090263339A1, “AGENT FOR EXTERNAL APPLICATION TO THE SKIN” (KABUSHIKI KAISHA HAYASHIBARA SEIBUTSU KAGAKU KENKY, priority 2005, published 2009).
Values after ≈ are worked out from the molar mass of the structure shown. Where two headings read alike, the source gives them in different places.

Columns and labels:
[1] = test system: B16 melanoma cells of mouse; assay: Effect of indigo-plant extract and other skin-whitening ingredient on melanin production (Experiment 2); type: cell-based; set-up: Efficacy with 1.25% of indigo-plant extract: key: −: Not changed; ±: Slightly suppressing blackening; +: Moderately suppressing blackening; ++: Significantly suppressing blackening; +++: Completely suppressing blackening; details: for Efficacy with 1.25% of indigo-plant extract: 72 hours; for Efficacy without indigo-plant extract: cultured 72 hours; on Efficacy without indigo-plant extract: key: −: Not changed; ±: Slightly suppressing blackening; +: Moderately suppressing blackening; ++: Significantly suppressing blackening; +++: Completely suppressing blackening
Procedure: The criterion for evaluation of blackening:
The following experiment was carried out to investigate the skin-whitening effect of indigo-plant extract and other skin-whitening ingredient. After B16 melanoma cells of mouse were cultured for 24 hours, the test samples were added to the medium alone or along with 1.25% of the indigo-plant extract to give the concentrations described in Table 2, the cells were cultured for additional 72 hours. After the number of the living cells was counted, a color of the cells packed in capillary was observed. The effect was evaluated on the same criterion in Experiment 1. When the experiment was conducted using 1.25% of the indigo-plant extract, the effect was evaluated as “+”.

[2] = test system: S. sobrinus; assay: MIC to dental bacteria, agar plate dilution; type: cell-based, Streptococcus sorbrinus; details: Streptococcus sobrinus, read-out: Minimum Inhibitory Concentration (MIC)
Procedure: (§1) The following experiment was carried out to investigate the effect of indigo-plant extract on human dental bacteria. Two parts by weight of shredded whole indigo plant was added with three parts by weight of purified water and stirred at a room temperature for 10 minutes to prepare the extract. The supernatant obtained by centrifugation was autoclaved at 120° C. for 20 minutes. After autoclaved, the supernatant obtained by centrifugation was filtrated to give an indigo-plant extract (solid content of 1.41%). The minimum inhibitory concentration (hereinafter, occasionally abbreviated as “MIC”) of the extract to dental bacteria (periodontal disease bacteria and caries bacteria) was determined. Also MIC of tryptanthrin, gallic acid and caffeic acid, which are found to be contained in the indigo-plant extract to dental bacteria. The measurement of MIC was conducted by the method described below.
MIC of the indigo-plant extract, tirptanthrin, gallic acid and caffeic acid was determined according to the standard method of Japanese Society of Chemotherapy (q.v. “Saikin-Shinkin Kensa” (Second edition), issued by Japan Public Health Association, pp. 524-529 (1982)). For periodontal disease bacteria, Prophyromonas gingivalis JCM8525, JCM12257 and ATCC33277, Actinobacillus actinomycetemcomitans (hereinafter, occasionally abbreviated as “A. actinomycetemcomitans”) JCM2434 and JCM8577, Prevotella intermedia (hereinafter, occasionally abbreviated as “P. intermedia”) JCM7365, and Campylobacter rectus (hereinafter, occasionally abbreviated as “C. rectus”) JCM6301 were used. For caries bacteria, Streptococcus mutans OMZ-175, OMZ-176, OMZ-65, OMZ-61, B-13D and Ingbritt, and Streptococcus sorbrinus (hereinafter, occasionally abbreviated as “S. sorbrinus”) 6715 were used. These bacteria were anaerobically cultured in Brain Heart Infusion medium (commercialized by Difco Laboratories Inc., hereinafter abbreviated as “BHI”) at 37° C. for 48 hours for periodontal disease bacteria or for 18 to 24 hours for caries bacteria. […]

[3] = test system: dental bacteria (periodontal disease bacteria and caries bacteria); assay: MIC to dental bacteria, summary over all strains; type: cell-based
Procedure: as §1
MIC of the indigo-plant extract, tirptanthrin, gallic acid and caffeic acid was determined according to the standard method of Japanese Society of Chemotherapy (q.v. “Saikin-Shinkin Kensa” (Second edition), issued by Japan Public Health Association, pp. 524-529 (1982)). […]

[4] = test system: A. actinomycetemcomitans; assay: MIC to dental bacteria, agar plate dilution; type: cell-based, Actinobacillus actinomycetemcomitans; details: Aggregatibacter actinomycetemcomitans
[5] = test system: A. actinomycetemcomitans; assay: MIC to dental bacteria, agar plate dilution; type: cell-based, Actinobacillus actinomycetemcomitans; details: Aggregatibacter actinomycetemcomitans; remark: listed apart in the source
Procedure: as §1
(§2) MIC of the indigo-plant extract, tirptanthrin, gallic acid and caffeic acid was determined according to the standard method of Japanese Society of Chemotherapy (q.v. “Saikin-Shinkin Kensa” (Second edition), issued by Japan Public Health Association, pp. 524-529 (1982)). For periodontal disease bacteria, Prophyromonas gingivalis JCM8525, JCM12257 and ATCC33277, Actinobacillus actinomycetemcomitans (hereinafter, occasionally abbreviated as “A. actinomycetemcomitans”) JCM2434 and JCM8577, Prevotella intermedia (hereinafter, occasionally abbreviated as “P. intermedia”) JCM7365, and Campylobacter rectus (hereinafter, occasionally abbreviated as “C. rectus”) JCM6301 were used. For caries bacteria, Streptococcus mutans OMZ-175, OMZ-176, OMZ-65, OMZ-61, B-13D and Ingbritt, and Streptococcus sorbrinus (hereinafter, occasionally abbreviated as “S. sorbrinus”) 6715 were used. These bacteria were anaerobically cultured in Brain Heart Infusion medium (commercialized by Difco Laboratories Inc., hereinafter abbreviated as “BHI”) at 37° C. for 48 hours for periodontal disease bacteria or for 18 to 24 hours for caries bacteria. The broth of periodontal disease bacteria and caries bacteria was diluted to give the bacteria suspensions containing 10^8 cells/ml and 10^6 cells/ml, respectively. Five μl of any one of these suspension was inoculated on BHI agar plate containing various concentration of the indigo-plant extract, tryptanthrin, gallic acid or caffeic acid and anaerobically cultured at 37° C. for 24 hours.

[6] = test system: S. mutans; assay: MIC to dental bacteria, agar plate dilution; type: cell-based; details: Streptococcus mutans
Procedure: as §1, §2

[7] = test system: C. rectus; assay: MIC to dental bacteria, agar plate dilution; type: cell-based; details: Campylobacter rectus, read-out: Minimum Inhibitory Concentration (MIC)
Procedure: as §1, §2

[8] = test system: P. intermedia; assay: MIC to dental bacteria, agar plate dilution; type: cell-based; details: Prevotella intermedia, read-out: Minimum Inhibitory Concentration (MIC)
Procedure: as §1, §2

[9] = test system: B16 melanoma cells of mouse; assay: Effect of polygonaceous plant extracts on melanin production, blackening of cells (Experiment 1); type: cell-based; on Efficacy (suppression of blackening of cells): key: −: Not changed; ±: Slightly suppressing blackening; +: Moderately suppressing blackening; ++: Significantly suppressing blackening; +++: Completely suppressing blackening
Procedure: The following experiment was carried out to investigate the effect of extract of polygonaceous plants on melanin production. After 2.2×10^5 of B16 melanoma cells of mouse were cultured by conventional method for 24 hours, the medium was added with indigo-plant extract to give a concentration of 1.25% or 2.5%, then they were cultured for additional 72 hours. After the number of the living cells was counted, color of the cells packed in capillary was observed. Using a medium added with any one of the extract of Japanese knotweed, buckwheat and knotgrass prepared by the same method of Example 1 described later to give a concentration of 2.5%, or added with koji acid to give a concentration of 2.5 mM as control, the B16 melanoma cells were cultured by the same manner as using indigo-plant extract. Then the colors of the cells were observed by the same manner as using indigo-plant extract. The degree of blackening of B16 melanoma cells was evaluated by the criterion described below.

[10] = test system: B16 melanoma cells; assay: Cytotoxicity to B16 melanoma cells; type: cell-based, mouse; details: 0.5 μg/ml
[11] = content 3.0% together with 1.25% indigo-plant extract
[12] = strain JMC8525, read-out: Minimum Inhibitory Concentration (MIC)
[13] = strain JMC12257, read-out: Minimum Inhibitory Concentration (MIC)
[14] = strain JMC33277, read-out: Minimum Inhibitory Concentration (MIC)
[15] = strain JMC2434, read-out: Minimum Inhibitory Concentration (MIC)
[16] = strain JMC8577, read-out: Minimum Inhibitory Concentration (MIC)
[17] = strain B-13D, read-out: Minimum Inhibitory Concentration (MIC)
[18] = strain Ingbritt, read-out: Minimum Inhibitory Concentration (MIC)
[19] = strain OMZ-61, read-out: Minimum Inhibitory Concentration (MIC)
[20] = strain OMZ-65, read-out: Minimum Inhibitory Concentration (MIC)
[21] = strain OMZ-175, read-out: Minimum Inhibitory Concentration (MIC)
[22] = strain OMZ-176, read-out: Minimum Inhibitory Concentration (MIC)
[23] = content 0.5% together with 1.25% indigo-plant extract
[24] = content 1.0% together with 1.25% indigo-plant extract

CCCCc1ccc(O)cc1O [4-n-Butylresorcinol]
Efficacy with 1.25% of indigo-plant extract [1, 11]: +++
Efficacy without indigo-plant extract ([1]; content 3.0%): +

OC[C@H]1O[C@@H](Oc2ccc(O)cc2)[C@H](O)[C@@H](O)[C@@H]1O [Arbutin, hydroquinone-β-D-glucoside]
Efficacy with 1.25% of indigo-plant extract ([1]; content 5.0% together with 1.25% indigo-plant extract): +++
Efficacy without indigo-plant extract ([1]; content 5.0%): +

O=C(O)/C=C/c1ccc(O)c(O)c1 [Caffeic acid, caffeic acid]
MIC ([2]; strain 6715): 800 µg/mL (≈ 4440 µM)
Antimicrobial activity (in words) [3]: no antimicrobial activity
MIC [4, 12]: 400 µg/mL (≈ 2220 µM)
MIC [4, 13]: 400 µg/mL (≈ 2220 µM)
MIC [4, 14]: 400 µg/mL (≈ 2220 µM)
MIC [5, 15]: 400 µg/mL (≈ 2220 µM)
MIC [5, 16]: 200 µg/mL (≈ 1110 µM)
MIC [6, 17]: 200 µg/mL (≈ 1110 µM)
MIC [6, 18]: 1600 µg/mL (≈ 8880 µM)
MIC [6, 19]: 400 µg/mL (≈ 2220 µM)
MIC [6, 20]: 200 µg/mL (≈ 1110 µM)
MIC [6, 21]: 400 µg/mL (≈ 2220 µM)
MIC [6, 22]: 800 µg/mL (≈ 4440 µM)
MIC ([7]; strain JMC6301): 100 µg/mL (≈ 555 µM)
MIC ([8]; strain JMC7365): 400 µg/mL (≈ 2220 µM)

O=c1oc2c(O)c(O)cc3c(=O)oc4c(O)c(O)cc1c4c23 [Ellagic acid]
Efficacy with 1.25% of indigo-plant extract [1, 23]: ++
Efficacy without indigo-plant extract ([1]; content 0.5%): ±

O=C(O)c1cc(O)c(O)c(O)c1 [Gallic acid, gallic acid]
MIC ([2]; strain 6715): 800 µg/mL (≈ 4700 µM)
MIC [4, 12]: 400 µg/mL (≈ 2350 µM)
MIC [4, 13]: 400 µg/mL (≈ 2350 µM)
MIC [4, 14]: 400 µg/mL (≈ 2350 µM)
MIC [5, 15]: 800 µg/mL (≈ 4700 µM)
MIC [5, 16]: 800 µg/mL (≈ 4700 µM)
MIC [6, 17]: 200 µg/mL (≈ 1180 µM)
MIC [6, 18]: 1600 µg/mL (≈ 9410 µM)
MIC [6, 19]: 200 µg/mL (≈ 1180 µM)
MIC [6, 20]: 1600 µg/mL (≈ 9410 µM)
MIC [6, 21]: 400 µg/mL (≈ 2350 µM)
MIC [6, 22]: 400 µg/mL (≈ 2350 µM)
MIC ([7]; strain JMC6301): 400 µg/mL (≈ 2350 µM)
MIC ([8]; strain JMC7365): 400 µg/mL (≈ 2350 µM)

CCCCC/C=C\C/C=C\CCCCCCCC(=O)O [Linoleic acid]
Efficacy with 1.25% of indigo-plant extract [1, 23]: ++
Efficacy without indigo-plant extract ([1]; content 0.5%): ±

COc1ccc(C(=O)[O-])c(O)c1.[K+] [Potassium 4-methoxysalicylate]
Efficacy with 1.25% of indigo-plant extract [1, 24]: +++
Efficacy without indigo-plant extract ([1]; content 1.0%): +

O=C1O[C@H]([C@@H](O)CO)C([O-])=C1O.[Na+] [Sodium L-ascorbate]
Efficacy with 1.25% of indigo-plant extract [1, 11]: +++
Efficacy without indigo-plant extract ([1]; content 3.0%): +

COc1cc(CCC(=O)CC(=O)CCc2ccc(O)c(OC)c2)ccc1O [Tetrahydrocurcumin]
Efficacy with 1.25% of indigo-plant extract [1, 23]: ++
Efficacy without indigo-plant extract ([1]; content 0.5%): ±

NC[C@H]1CC[C@H](C(=O)O)CC1 [Tranexamic acid]
Efficacy with 1.25% of indigo-plant extract [1, 24]: ++
Efficacy without indigo-plant extract ([1]; content 1.0%): ±

O=c1cc(CO)occ1O [koji acid]
Efficacy (suppression of blackening of cells) ([9]; medium containing 2.5 mM, cultured 72 hours): +
Efficacy with 1.25% of indigo-plant extract [1, 24]: +++
Efficacy without indigo-plant extract ([1]; content 1.0%): +

O=C1c2ccccc2-n2c1nc1ccccc1c2=O [tryptanthrin]
MIC [2]: 25 µg/mL (≈ 101 µM)
Melanin production ([9]; 0.5 μg/ml or more used instead of the indigo-plant extract): melanin production was suppressed although the effect was lower than the one of indigo-plant extract
MIC ([4]; read-out: Minimum Inhibitory Concentration (MIC), strain JMC12257): 12.5 µg/mL (≈ 50.4 µM)
MIC ([4]; read-out: Minimum Inhibitory Concentration (MIC), strain JMC33277): 12.5 µg/mL (≈ 50.4 µM)
MIC ([5]; read-out: Minimum Inhibitory Concentration (MIC), strain JMC2434): 25 µg/mL (≈ 101 µM)
MIC ([5]; read-out: Minimum Inhibitory Concentration (MIC), strain JMC8525): 6.25 µg/mL (≈ 25.2 µM)
MIC ([5]; read-out: Minimum Inhibitory Concentration (MIC), strain JMC8577): 25 µg/mL (≈ 101 µM)
Cytotoxicity [10]: no cytotoxity to B16 melanoma cells was observed
MIC ([6]; read-out: Minimum Inhibitory Concentration (MIC), strain B-13D): 6.25 µg/mL (≈ 25.2 µM)
MIC ([6]; read-out: Minimum Inhibitory Concentration (MIC), strain Ingbritt): 25 µg/mL (≈ 101 µM)
MIC ([6]; read-out: Minimum Inhibitory Concentration (MIC), strain OMZ-61): 6.25 µg/mL (≈ 25.2 µM)
MIC ([6]; read-out: Minimum Inhibitory Concentration (MIC), strain OMZ-65): 12.5 µg/mL (≈ 50.4 µM)
MIC ([6]; read-out: Minimum Inhibitory Concentration (MIC), strain OMZ-175): 6.25 µg/mL (≈ 25.2 µM)
MIC ([6]; read-out: Minimum Inhibitory Concentration (MIC), strain OMZ-176): 12.5 µg/mL (≈ 50.4 µM)
MIC [7]: 25 µg/mL (≈ 101 µM)
MIC [8]: 6.25 µg/mL (≈ 25.2 µM)
